Data reported in the supplement of paper PMC10307832.

Tests used:
Experiment in all cases: relative viability (nuclei count vs DMSO), 5 days (fraction); higher = more cells survive
GW-2580 + Navitoclax = compound: COC1=CC=C(C=C1)COC2=C(C=C(C=C2)CC3=CN=C(N=C3N)N)OC [GW-2580] + CC1(C)CCC(c2ccc(Cl)cc2)=C(CN2CCN(c3ccc(C(=O)NS(=O)(=O)c4ccc(N[C@H](CCN5CCOCC5)CSc5ccccc5)c(S(=O)(=O)C(F)(F)F)c4)cc3)CC2)C1 [Navitoclax] (partner 0.5 µM)
In short: (§1)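 Relative viability was taken as the ratio of nuclei in treated wells to nuclei in vehicle wells. Lung cancer cell lines in 1536-well plates received compounds by pin tool one day after seeding, either one drug alone or a fixed anchor-drug dose plus five library-drug doses (not always all listed) in √10 steps. Nuclei were counted on 4× images after 5 days of treatment, and values are medians of duplicate plates.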

Fedratinib + Phenformin = compound: Cc1cnc(Nc2ccc(OCCN3CCCC3)cc2)nc1Nc1cccc(S(=O)(=O)NC(C)(C)C)c1 [Fedratinib] + N=C(N)NC(=N)NCCc1ccccc1 [Phenformin] (partner 250 µM)
In short: as §1

GW-2580 + Phenformin = compound: COC1=CC=C(C=C1)COC2=C(C=C(C=C2)CC3=CN=C(N=C3N)N)OC [GW-2580] + N=C(N)NC(=N)NCCc1ccccc1 [Phenformin] (partner 250 µM)
In short: as §1

Fedratinib = compound: Cc1cnc(Nc2ccc(OCCN3CCCC3)cc2)nc1Nc1cccc(S(=O)(=O)NC(C)(C)C)c1 [Fedratinib]
In short: (§2)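 On vehicle-anchored 1536-well plates, lung cancer cell lines held overnight at 37 °C were pinned with five library-drug doses (not always all listed) spaced by √10. With no medium change over 5 days, they were then fixed, permeabilised and Hoechst-stained in one step and imaged at 4×. MetaXpress counted nuclei, and viability is the median across plates of treated-well over vehicle-well nuclei. Acceptance needed control CV below 25% and at least one doubling.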

GW-2580 = compound: COC1=CC=C(C=C1)COC2=C(C=C(C=C2)CC3=CN=C(N=C3N)N)OC [GW-2580]
In short: as §2

| Cell Line | relative viability (GW-2580 + Navitoclax; first compound 0.08 µM) | relative viability (GW-2580 + Navitoclax; first compound 2.53 µM) | relative viability (GW-2580 + Navitoclax; first compound 8 µM) | relative viability (Fedratinib + Phenformin; first compound 0.1 µM) | relative viability (Fedratinib + Phenformin; first compound 0.3162 µM) | relative viability (Fedratinib + Phenformin; first compound 1 µM) | relative viability (GW-2580 + Phenformin; first compound 0.08 µM) | relative viability (GW-2580 + Phenformin; first compound 0.8 µM) | relative viability (GW-2580 + Phenformin; first compound 2.53 µM) | relative viability (GW-2580 + Phenformin; first compound 8 µM) | relative viability (Fedratinib; 0.1 µM) | relative viability (Fedratinib; 0.3162 µM) | relative viability (Fedratinib; 1 µM) | relative viability (GW-2580; 0.08 µM) | relative viability (GW-2580; 0.8 µM) | relative viability (GW-2580; 2.53 µM) | relative viability (GW-2580; 8 µM) | relative viability (GW-2580 + Navitoclax; first compound 0.8 µM) |
| --- | --- | --- | --- | --- | --- | --- | --- | --- | --- | --- | --- | --- | --- | --- | --- | --- | --- | --- |
| CAL-12T | 1.27 | 1.22 | 1.34 | 0.597 | 0.611 | 0.526 | 0.624 | 0.613 | 0.609 | 0.514 | 0.93 | 0.996 | 0.859 | 0.995 | 1.03 | 0.933 | 1.01 | – |
| RERF-LC-KJ | 0.871 | 1.13 | 0.995 | 0.384 | 0.433 | 0.373 | 0.435 | 0.418 | 0.445 | 0.395 | 1.03 | 1.04 | 0.917 | 1.08 | 1.15 | 0.921 | 0.977 | 1.04 |
| NCI-H1650 | 1.31 | 1.1 | 1.13 | – | 0.495 | 0.234 | 0.516 | 0.461 | 0.372 | 0.536 | 0.715 | 1.01 | 0.748 | 1.08 | 1.11 | 0.83 | 1.05 | 1.26 |
| BEN | 0.0663 | 0.0634 | 0.0526 | 0.251 | 0.231 | 0.292 | 0.266 | 0.33 | 0.255 | 0.317 | 0.842 | 0.91 | 0.831 | 0.949 | 1.08 | 0.776 | 0.905 | 0.486 |
| EMC-BAC-2 | 1.18 | 1.07 | 1.2 | 0.404 | 0.523 | 0.421 | 0.558 | 0.501 | 0.416 | 0.493 | 1.1 | 1.01 | 0.833 | 1.02 | 1.12 | 0.643 | 0.901 | 1.39 |
| LU99A | 0.887 | 0.681 | 0.729 | 0.864 | 0.894 | 0.755 | 0.773 | 0.823 | 0.647 | 0.808 | 0.969 | 0.934 | 0.924 | 0.991 | 0.875 | 0.949 | 0.916 | 0.97 |
| ABC-1 | – | – | – | 0.265 | 0.23 | 0.209 | 0.236 | 0.226 | 0.234 | 0.224 | 0.827 | 0.954 | 0.816 | 0.956 | 1.14 | 0.869 | 0.883 | – |
| NCI-H1299 | 1.09 | 1.06 | 0.97 | – | – | – | – | – | – | – | 1.01 | 1.03 | 1 | 1.08 | 1.03 | 1 | 0.937 | 1.06 |
| EBC-1 | 0.418 | 0.369 | 0.37 | – | – | – | – | – | – | – | 0.893 | 0.988 | 0.878 | 1.07 | 1.17 | 0.889 | 0.949 | 0.37 |
| NCI-H1648 | – | – | – | – | – | – | – | – | – | – | 0.889 | 0.901 | 0.694 | 0.82 | – | 0.929 | 0.888 | – |
| NCI-H650 | – | – | – | 0.431 | 0.441 | 0.426 | 0.43 | 0.474 | 0.392 | 0.481 | 0.709 | 0.892 | 0.418 | 0.974 | 1.04 | 0.817 | 0.961 | – |
| NCI-H358 | – | – | – | 0.304 | 0.323 | 0.252 | 0.365 | 0.518 | 0.36 | 0.353 | 0.999 | 0.911 | 0.884 | 0.965 | 1.03 | 0.874 | 0.789 | – |
| NCI-H1563 | – | – | – | 0.658 | 0.693 | 0.637 | 0.69 | 0.679 | 0.647 | 0.637 | 0.949 | 1.04 | 0.933 | 0.982 | 0.966 | 0.876 | 0.912 | – |
| NCI-H522 | – | – | – | 0.588 | 0.585 | 0.661 | 0.659 | 0.638 | 0.959 | 0.754 | 0.971 | 1.16 | 0.758 | 0.969 | 0.9 | 0.957 | 0.996 | – |
| IA-LM | 0.895 | 0.723 | 0.782 | – | – | – | – | – | – | – | 1.01 | 0.87 | 0.931 | 0.849 | 1.1 | 0.913 | 0.936 | 0.88 |
| NCI-H1703 | 1.11 | 1.1 | 1.06 | – | – | – | – | – | – | – | 0.518 | 0.794 | 0.686 | 0.855 | 0.991 | 1.02 | 0.919 | 1.15 |
| LCLC-103H | – | – | – | 0.32 | 0.284 | 0.363 | 0.345 | 0.328 | 0.331 | 0.376 | 0.952 | 1 | 0.932 | 0.999 | 0.909 | 0.977 | 0.927 | – |
| SW 900 | – | – | – | 0.445 | 0.672 | 0.327 | 0.856 | 0.632 | 0.472 | 0.633 | 0.78 | 0.847 | 0.768 | 0.767 | 0.876 | 0.833 | 0.771 | – |
